Among the data in ChEMBL document CHEMBL4017512 (J Med Chem, 2017) are IC50 values, retold here.

Experiment [1] is described as follows: Cytotoxicity against human HCT116/VM46 cells assessed as reduction in cell viability after 72 hrs by phosphatase assay. In kind it is cell-based. As to conditions: HCT-116/VM46, 72 h.
The subject of a further experiment is HCT-116. Kind of experiment: Antiproliferative activity against human HCT116 cells after 72 hrs by phosphatase assay. Format: functional, cell-based. As to conditions: HCT-116, 72 h.
For another experiment, the system named is L1210. Kind of experiment: Antiproliferative activity against mouse L1210 cells after 72 hrs by phosphatase assay. In kind it is functional, cell-based. As to conditions: L1210, 72 h.

The term IC50 denotes the concentration needed to halve the response being measured. Consider `CC[C@]1(NC(=O)c2cc(Cl)c(OC)c(Cl)c2)C[C@H]2CN(CCc3c([nH]c4ccccc34)[C@@](C(=O)OC)(c3cc4c(cc3OC)N(C)[C@H]3[C@@](O)(C(=O)OC)[C@H](OC(C)=O)[C@]5(CC)C=CCN6CC[C@]43[C@@H]65)C2)C1`, for which the half-maximal inhibitory concentration (IC50) in experiment [1] came to 25 nM; in the experiment with HCT-116 it was 4.2 nM; with L1210, 3.1 nM.

Turning to `CC[C@]1(NC(=O)c2ccc(OC)c(OC)c2)C[C@H]2CN(CCc3c([nH]c4ccccc34)[C@@](C(=O)OC)(c3cc4c(cc3OC)N(C)[C@H]3[C@@](O)(C(=O)OC)[C@H](OC(C)=O)[C@]5(CC)C=CCN6CC[C@]43[C@@H]65)C2)C1`, the figures for the IC50 (in experiment [1]; with HCT-116; in the experiment with L1210) were 1.4 nM, 0.07 nM and 0.06 nM, respectively.

In the case of `CC[C@]1(NC(=O)c2cccc(C(C)C)c2)C[C@H]2CN(CCc3c([nH]c4ccccc34)[C@@](C(=O)OC)(c3cc4c(cc3OC)N(C)[C@H]3[C@@](O)(C(=O)OC)[C@H](OC(C)=O)[C@]5(CC)C=CCN6CC[C@]43[C@@H]65)C2)C1`, the IC50 in experiment [1] worked out at 65 nM; with HCT-116, 8.7 nM; in the experiment on L1210, 7.5 nM.

`CC[C@]1(NC(=O)c2ccc3c(c2)OCCN3C)C[C@H]2CN(CCc3c([nH]c4ccccc34)[C@@](C(=O)OC)(c3cc4c(cc3OC)N(C)[C@H]3[C@@](O)(C(=O)OC)[C@H](OC(C)=O)[C@]5(CC)C=CCN6CC[C@]43[C@@H]65)C2)C1`: the concentration for half-maximal inhibition (IC50) in experiment [1] is 4.9 nM; in the experiment with HCT-116, 0.3 nM; in the experiment with L1210, 0.3 nM.

On to `CC[C@]1(NC(=O)c2ccc3c(c2)CCN3)C[C@H]2CN(CCc3c([nH]c4ccccc34)[C@@](C(=O)OC)(c3cc4c(cc3OC)N(C)[C@H]3[C@@](O)(C(=O)OC)[C@H](OC(C)=O)[C@]5(CC)C=CCN6CC[C@]43[C@@H]65)C2)C1`, for which the IC50 in experiment [1] stood at 60 nM; in the experiment on HCT-116 it was 6.7 nM; in the experiment on L1210 it was 5.1 nM.

For the molecule `CC[C@]1(NC(=O)c2ccc(OC(F)(F)F)cc2)C[C@H]2CN(CCc3c([nH]c4ccccc34)[C@@](C(=O)OC)(c3cc4c(cc3OC)N(C)[C@H]3[C@@](O)(C(=O)OC)[C@H](OC(C)=O)[C@]5(CC)C=CCN6CC[C@]43[C@@H]65)C2)C1`, the IC50 amounted to 8.4 nM in experiment [1], 4.4 nM with HCT-116 and 5.9 nM in the experiment on L1210.

With `CC[C@]1(NC(=O)c2ccccc2OC(F)(F)F)C[C@H]2CN(CCc3c([nH]c4ccccc34)[C@@](C(=O)OC)(c3cc4c(cc3OC)N(C)[C@H]3[C@@](O)(C(=O)OC)[C@H](OC(C)=O)[C@]5(CC)C=CCN6CC[C@]43[C@@H]65)C2)C1`, the results for the 50% inhibitory concentration (IC50) (in experiment [1]; in the experiment on HCT-116; in the experiment with L1210) were 620 nM, 480 nM and 450 nM, respectively.

In the case of `CC[C@]1(NC(=O)c2cnc3ccccc3c2)C[C@H]2CN(CCc3c([nH]c4ccccc34)[C@@](C(=O)OC)(c3cc4c(cc3OC)N(C)[C@H]3[C@@](O)(C(=O)OC)[C@H](OC(C)=O)[C@]5(CC)C=CCN6CC[C@]43[C@@H]65)C2)C1`, the results for the IC50 (in experiment [1]; in the experiment on HCT-116; with L1210) were 5.7 nM, 0.6 nM and 0.7 nM, respectively.

For `CC[C@]1(NC(=O)c2cc3ccccc3o2)C[C@H]2CN(CCc3c([nH]c4ccccc34)[C@@](C(=O)OC)(c3cc4c(cc3OC)N(C)[C@H]3[C@@](O)(C(=O)OC)[C@H](OC(C)=O)[C@]5(CC)C=CCN6CC[C@]43[C@@H]65)C2)C1`, the IC50 turned out to be 15 nM in experiment [1], 1.1 nM in the experiment with HCT-116 and 1.8 nM in the experiment on L1210.

As to `CCCCc1ccc(C(=O)N[C@@]2(CC)C[C@H]3CN(CCc4c([nH]c5ccccc45)[C@@](C(=O)OC)(c4cc5c(cc4OC)N(C)[C@H]4[C@@](O)(C(=O)OC)[C@H](OC(C)=O)[C@]6(CC)C=CCN7CC[C@]54[C@@H]76)C3)C2)cc1`, the IC50 came to 70 nM in experiment [1], 20 nM in the experiment on HCT-116 and 30 nM in the experiment on L1210.

Turning to `CC[C@]1(NC(=O)c2ccc(NC(=O)OC)cc2)C[C@H]2CN(CCc3c([nH]c4ccccc34)[C@@](C(=O)OC)(c3cc4c(cc3OC)N(C)[C@H]3[C@@](O)(C(=O)OC)[C@H](OC(C)=O)[C@]5(CC)C=CCN6CC[C@]43[C@@H]65)C2)C1`, the 50% inhibitory concentration (IC50) was 55 nM in experiment [1], 0.8 nM with HCT-116 and 1.5 nM in the experiment with L1210.

On to `CCOc1ccc(C(=O)N[C@@]2(CC)C[C@H]3CN(CCc4c([nH]c5ccccc45)[C@@](C(=O)OC)(c4cc5c(cc4OC)N(C)[C@H]4[C@@](O)(C(=O)OC)[C@H](OC(C)=O)[C@]6(CC)C=CCN7CC[C@]54[C@@H]76)C3)C2)cc1`, for which the results for the 50% inhibitory concentration (IC50) (in experiment [1]; in the experiment with HCT-116; in the experiment on L1210) were 2.8 nM, 0.6 nM and 0.6 nM, respectively.

With `CC[C@]1(NC(=O)c2cn(C)cn2)C[C@H]2CN(CCc3c([nH]c4ccccc34)[C@@](C(=O)OC)(c3cc4c(cc3OC)N(C)[C@H]3[C@@](O)(C(=O)OC)[C@H](OC(C)=O)[C@]5(CC)C=CCN6CC[C@]43[C@@H]65)C2)C1`, the IC50 is above 1000 nM in experiment [1], 50 nM in the experiment on HCT-116 and 80 nM with L1210.

As for `CC[C@]1(NC(=O)/C=C/c2ccccc2)C[C@H]2CN(CCc3c([nH]c4ccccc34)[C@@](C(=O)OC)(c3cc4c(cc3OC)N(C)[C@H]3[C@@](O)(C(=O)OC)[C@H](OC(C)=O)[C@]5(CC)C=CCN6CC[C@]43[C@@H]65)C2)C1`, the figures for the IC50 (in experiment [1]; with HCT-116; in the experiment with L1210) were 20 nM, 0.9 nM and 0.8 nM, respectively.

`CC[C@]1(NC(=O)c2ccc(OC(F)(F)F)cc2)C[C@H]2CN(CCc3c([nH]c4ccc(F)cc34)[C@@](C(=O)OC)(c3cc4c(cc3OC)N(C)[C@H]3[C@@](O)(C(=O)OC)[C@H](OC(C)=O)[C@]5(CC)C=CCN6CC[C@]43[C@@H]65)C2)C1`: the results for the concentration for half-maximal inhibition (IC50) (in experiment [1]; in the experiment with HCT-116; in the experiment on L1210) were 1 nM, 0.7 nM and 0.6 nM, respectively.

For the molecule `CC[C@]1(NC(=O)c2ccc(-c3ccccc3)cc2)C[C@H]2CN(CCc3c([nH]c4ccccc34)[C@@](C(=O)OC)(c3cc4c(cc3OC)N(C)[C@H]3[C@@](O)(C(=O)OC)[C@H](OC(C)=O)[C@]5(CC)C=CCN6CC[C@]43[C@@H]65)C2)C1`, the results for the IC50 (in experiment [1]; in the experiment with HCT-116; with L1210) were 60 nM, 5.4 nM and 5.5 nM, respectively.

Consider `CC[C@]1(NC(=O)c2cc(C)c(OC)c(C)c2)C[C@H]2CN(CCc3c([nH]c4ccccc34)[C@@](C(=O)OC)(c3cc4c(cc3OC)N(C)[C@H]3[C@@](O)(C(=O)OC)[C@H](OC(C)=O)[C@]5(CC)C=CCN6CC[C@]43[C@@H]65)C2)C1`, for which the IC50 in experiment [1] was found to be 3.5 nM; with HCT-116, 0.65 nM; in the experiment with L1210 it was 0.5 nM.

Turning to `CC[C@]1(NC(=O)c2ccc(CC(C)C)cc2)C[C@H]2CN(CCc3c([nH]c4ccccc34)[C@@](C(=O)OC)(c3cc4c(cc3OC)N(C)[C@H]3[C@@](O)(C(=O)OC)[C@H](OC(C)=O)[C@]5(CC)C=CCN6CC[C@]43[C@@H]65)C2)C1`, the values for the IC50 (in experiment [1]; in the experiment with HCT-116; in the experiment on L1210) were 65 nM, 10 nM and 25 nM, respectively.

For the molecule `CC[C@]1(NC(=O)c2ccc3cccnc3c2)C[C@H]2CN(CCc3c([nH]c4ccccc34)[C@@](C(=O)OC)(c3cc4c(cc3OC)N(C)[C@H]3[C@@](O)(C(=O)OC)[C@H](OC(C)=O)[C@]5(CC)C=CCN6CC[C@]43[C@@H]65)C2)C1`, the half-maximal inhibitory concentration (IC50) in experiment [1] amounted to 8.2 nM; in the experiment on HCT-116 it was 0.7 nM; in the experiment with L1210, 0.6 nM.

With `CC[C@]1(NC(=O)c2ccc3ccccc3n2)C[C@H]2CN(CCc3c([nH]c4ccccc34)[C@@](C(=O)OC)(c3cc4c(cc3OC)N(C)[C@H]3[C@@](O)(C(=O)OC)[C@H](OC(C)=O)[C@]5(CC)C=CCN6CC[C@]43[C@@H]65)C2)C1`, the IC50 was 270 nM in experiment [1], 40 nM in the experiment on HCT-116 and 40 nM in the experiment with L1210.

Consider `CC[C@]1(NC(=O)c2ccc3ncsc3c2)C[C@H]2CN(CCc3c([nH]c4ccccc34)[C@@](C(=O)OC)(c3cc4c(cc3OC)N(C)[C@H]3[C@@](O)(C(=O)OC)[C@H](OC(C)=O)[C@]5(CC)C=CCN6CC[C@]43[C@@H]65)C2)C1`, for which the IC50 came to 20 nM in experiment [1], 0.6 nM in the experiment on HCT-116 and 0.5 nM with L1210.

Turning to `CC[C@]1(NC(=O)c2ccc3c(c2)OCO3)C[C@H]2CN(CCc3c([nH]c4ccccc34)[C@@](C(=O)OC)(c3cc4c(cc3OC)N(C)[C@H]3[C@@](O)(C(=O)OC)[C@H](OC(C)=O)[C@]5(CC)C=CCN6CC[C@]43[C@@H]65)C2)C1`, the concentration for half-maximal inhibition (IC50) in experiment [1] is 8.7 nM; in the experiment with HCT-116 it was 0.8 nM; in the experiment with L1210, 0.6 nM.

For `CCc1ccc(C(=O)N[C@@]2(CC)C[C@H]3CN(CCc4c([nH]c5ccccc45)[C@@](C(=O)OC)(c4cc5c(cc4OC)N(C)[C@H]4[C@@](O)(C(=O)OC)[C@H](OC(C)=O)[C@]6(CC)C=CCN7CC[C@]54[C@@H]76)C3)C2)cc1`, the IC50 came to 3.4 nM in experiment [1], 0.7 nM with HCT-116 and 0.65 nM in the experiment with L1210.

Turning to `CC[C@]1(NC(=O)c2ccc(CNC(=O)OC(C)(C)C)cc2)C[C@H]2CN(CCc3c([nH]c4ccccc34)[C@@](C(=O)OC)(c3cc4c(cc3OC)N(C)[C@H]3[C@@](O)(C(=O)OC)[C@H](OC(C)=O)[C@]5(CC)C=CCN6CC[C@]43[C@@H]65)C2)C1`, the results for the half-inhibitory concentration (IC50) (in experiment [1]; with HCT-116; in the experiment on L1210) were 50 nM, 0.7 nM and 0.76 nM, respectively.

For `CCOc1ccc(C(=O)N[C@@]2(CC)C[C@H]3CN(CCc4c([nH]c5ccccc45)[C@@](C(=O)OC)(c4cc5c(cc4OC)N(C)[C@H]4[C@@](O)(C(=O)OC)[C@H](OC(C)=O)[C@]6(CC)C=CCN7CC[C@]54[C@@H]76)C3)C2)cc1Cl`, the 50% inhibitory concentration (IC50) is 40 nM in experiment [1], 6.1 nM with HCT-116 and 4.2 nM in the experiment on L1210.

`CC[C@]1(NC(=O)c2ccc(Oc3ccccc3)cc2)C[C@H]2CN(CCc3c([nH]c4ccccc34)[C@@](C(=O)OC)(c3cc4c(cc3OC)N(C)[C@H]3[C@@](O)(C(=O)OC)[C@H](OC(C)=O)[C@]5(CC)C=CCN6CC[C@]43[C@@H]65)C2)C1`: the IC50 in experiment [1] worked out at 50 nM; with HCT-116, 6.5 nM; in the experiment on L1210, 5.2 nM.
